In PubChem BioAssay (NCI):
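Grown in 96-well plates, cells were treated for 48 hours with each compound at five concentrations. Insufficient inhibition: endpoint recorded as highest concentration tested. TGI denotes the concentration required for complete inhibition of growth.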

How the values were obtained:
Experiment in all cases: growth of human tumour cells (NCI), 48 h
BT-549 breast = tested on: BT-549 breast
MDA-N = tested on: MDA-N
K-562 leukemia = tested on: K-562 leukemia
OVCAR-8 ovarian = tested on: OVCAR-8 ovarian
HS 578T breast = tested on: HS 578T breast
IGROV1 ovarian = tested on: IGROV1 ovarian
UACC-257 melanoma = tested on: UACC-257 melanoma
SW-620 colon = tested on: SW-620 colon
OVCAR-3 ovarian = tested on: OVCAR-3 ovarian
LOX IMVI melanoma = tested on: LOX IMVI melanoma
HCT-15 colon = tested on: HCT-15 colon
EKVX NSCLC = tested on: EKVX NSCLC
A498 renal = tested on: A498 renal
NCI-H460 lung = tested on: NCI-H460 lung
HOP-62 NSCLC = tested on: HOP-62 NSCLC
SN12C renal = tested on: SN12C renal
CAKI-1 renal = tested on: CAKI-1 renal
OVCAR-4 ovarian = tested on: OVCAR-4 ovarian
MDA-MB-231 breast = tested on: MDA-MB-231 breast
KM12 colon = tested on: KM12 colon
SNB-19 CNS = tested on: SNB-19 CNS
DU-145 prostate = tested on: DU-145 prostate
NCI-H522 lung = tested on: NCI-H522 lung
OVCAR-5 ovarian = tested on: OVCAR-5 ovarian
TK-10 renal = tested on: TK-10 renal
SK-MEL-5 melanoma = tested on: SK-MEL-5 melanoma
SK-MEL-28 melanoma = tested on: SK-MEL-28 melanoma
786-0 renal = tested on: 786-0 renal
T-47D breast = tested on: T-47D breast
SF-539 CNS = tested on: SF-539 CNS
SF-268 CNS = tested on: SF-268 CNS
SNB-75 CNS = tested on: SNB-75 CNS
HOP-92 NSCLC = tested on: HOP-92 NSCLC
UO-31 renal = tested on: UO-31 renal
NCI-H23 lung = tested on: NCI-H23 lung
A549 NSCLC = tested on: A549 NSCLC
PC-3 prostate = tested on: PC-3 prostate
NCI-H226 lung = tested on: NCI-H226 lung
NCI/ADR-RES ovarian = tested on: NCI/ADR-RES ovarian
MCF7 breast = tested on: MCF7 breast
CCRF-CEM leukemia = tested on: CCRF-CEM leukemia
HL-60(TB) leukemia = tested on: HL-60(TB) leukemia
RPMI-8226 leukemia = tested on: RPMI-8226 leukemia
ACHN renal = tested on: ACHN renal
SK-OV-3 ovarian = tested on: SK-OV-3 ovarian
HCT-116 colon = tested on: HCT-116 colon
MALME-3M melanoma = tested on: MALME-3M melanoma
SK-MEL-2 melanoma = tested on: SK-MEL-2 melanoma
SF-295 CNS = tested on: SF-295 CNS
M14 melanoma = tested on: M14 melanoma
UACC-62 melanoma = tested on: UACC-62 melanoma
RXF 393 renal = tested on: RXF 393 renal
COLO 205 colon = tested on: COLO 205 colon
U251 CNS = tested on: U251 CNS
HT29 colon = tested on: HT29 colon
MDA-MB-435 = tested on: MDA-MB-435
MOLT-4 leukemia = tested on: MOLT-4 leukemia
HCC-2998 colon = tested on: HCC-2998 colon

Measured: TGI

Cc1ccc(N=Nc2c(O)c3ccccc3[nH]c2=O)c(S(=O)(=O)N(C)C)c1
not listed: MOLT-4 leukemia | HCC-2998 colon
> 100 µM: all other assays above

COc1ccc2c(c1O)-c1c(OC)c(OC)cc3c1[C@H](C2)[N+](C)(C)CC3
not listed: HOP-62 NSCLC | RXF 393 renal
> 100 µM: all other assays above
